Data as given in patent US11440909B2, “10H-phenothiazine ferroptosis inhibitor as well as the preparative method and the use thereof” (CHENGDU HENGHAO INVESTMENT CO. LIMITED, priority 2018, dated 2022).
Read-outs that look alike come from different tables or passages of the source.

Columns and labels:
[1] = tested on: fibrosarcoma cell line HT1080; assay: Ferroptosis screening model (MTT method), Erastin-induced ferroptosis; type: cell-based, human; conditions: Homo sapiens
How it was run: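 HT1080 cells adhered 24 h, then received compound plus Erastin ([…] final) for 72 h at 37 °C, 5% CO2, in triplicate. Viability by MTT with SDS solubilisation, absorbance at 570 nm; inhibition of ferroptosis fitted to give EC50.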

[2] = tested on: rat middle cerebral artery occlusion (MCAO) stroke model; assay: Rat middle cerebral artery occlusion (MCAO) stroke model, different doses; type: in vivo; conditions: for Infarct weight: tail vein injection, 24 h of reperfusion, TTC stain; for Inhibition rate of cerebral infarction: versus model group infarct range
Description: By rat middle cerebral artery occlusion (MCAO) stroke model (also called cerebral ischemia model), the therapeutic effect of the compound of the present invention on ischemic stroke in SD rats at different doses was studied. Male SD rats were selected and induced anesthesia by 2-3.0% isoflurane. The middle cerebral artery was blocked by the thread plug method, resulting in rat ischemia model; the ischemic rats were placed at room temperature and kept their body temperature being 37° C. 60 minutes after ischemia onset, the rats were scored by Bederson neurobehavioral scale to determine whether the model was successfully made. 90 min after ischemia onset, the thread plug was pulled out for reperfusion. […] After 24 h of reperfusion, the animals were scored by NSS scale to evaluate neurological deficit. And then the animals were dissected, brains were collected and subjected to TTC stain. […] The percentage of the weight of the infarct tissue based on the weight of the whole brain was regarded as the infarct range (%), and the inhibition rate (%) of each drug treatment group was calculated based on the infarct range.

EC50 ([1]; HT-1080, 72 h, HT1080, ferroptosis inducer Erastin, 72 h, average of three tests, read-out: EC50): 0.5 nM
EC50 ([1]; HT-1080, HT1080, Erastin, read-out: EC50 value): ~1 nM
SMILES: CC(c1ccc(N2CCN(C)CC2)cc1)c1ccc2c(c1)Nc1ccccc1S2 (stereo not shown) [Compound A38, 2-(1-(4-(4-methylpiperazin-1-yl)phenyl)ethyl)-10H-phenothiazine]
Infarct weight ([2]; high dose 2.5 mg/kg): 0.126 ± 0.072 g
Inhibition rate of cerebral infarction ([2]; high dose 2.5 mg/kg): 50.885%
Infarct weight ([2]; low dose 0.5 mg/kg): 0.170 ± 0.041 g
Inhibition rate of cerebral infarction ([2]; low dose 0.5 mg/kg): 31.209%
Infarct weight ([2]; medium dose 1.25 mg/kg): 0.152 ± 0.064 g
Inhibition rate of cerebral infarction ([2]; medium dose 1.25 mg/kg): 38.968%
Infarct weight ([2]; very low dose 0.2 mg/kg): 0.187 ± 0.078 g
Inhibition rate of cerebral infarction ([2]; very low dose 0.2 mg/kg): 27.307%
